Tests used:
Format in all cases: cell-based, human
Nrf2 = Nrf2 expression and subcellular localization (immunostaining, Western blot, qRT-PCR) in TNBC cells; conditions: niclosamide 2 μM, 24 h; for Nrf2 protein level: Western blot; for Nrf2 mRNA level: qRT-PCR
Method: Total RNA was extracted from cells using TRIzol Reagent (ThermoFisher Scientific, Waltham, MA, USA) and the RNA was reverse-transcribed using a high-capacity cDNA reverse transcription kit (ThermoFisher Scientific, Waltham, MA, USA) according to the manufacturer’s protocol. Quantitative RT-PCR was performed with Takara Taq Hot Start Version (TaKaRa Biotechnology, Shiga, Japan) or Power SYBR Green PCR master mix (Bio-Rad, Hercules, CA, USA). Primer sequences are shown in Supplemental Table S1. The relative mRNA expression was determined by the 2^−∆∆Ct method. Additionally, 18S was used as a housekeeping gene for normalization.
(§1) Cells and tumor tissues were lysed in Pierce™ RIPA buffer (ThermoFisher Scientific, Waltham, MA, USA) supplemented with Halt™ Protease and Phosphatase Inhibitor Cocktail (ThermoFisher Scientific, Waltham, MA, USA). Homogenates were centrifuged, and supernatants were used for protein measurement via Pierce™ BCA Protein Assay Kit (ThermoFisher Scientific, Waltham, MA, USA). […] Western blot samples were prepared in Laemmli sample buffer (Bio-Rad Laboratories, Hercules, CA, USA). They were loaded onto a SDS–PAGE gel and transferred onto a PVDF membrane (Bio-Rad Laboratories, Hercules, CA, USA). The membrane was blocked and antibodies diluted in 5% nonfat dry milk (Bio-Rad Laboratories, Hercules, CA, USA) or in 5% bovine serum albumin (Irvine Scientific, Santa Ana, CA, USA) were used. Protein bands were visualized using Pierce™ ECL Western Blotting Substrate (ThermoFisher Scientific, Waltham, MA, USA) and developed on the autoradiography film (Santa Cruz, Dallas, TX, USA). Primary antibodies were purchased either from Cell Signaling (Danvers, MA, USA) [anti-GPX4 (#52455), anti-FTH (#4393), anti-HSP60 (#12165), anti-phospho-p70S6K (#9205), anti-p70S6K (#2708)] or from Abcam (Waltham, MA, USA) [Nrf2 (#ab62352)]. Secondary antibody Horseradish peroxidase-conjugated goat anti-rabbit IgG (#1706515) was purchased from Bio-Rad Laboratories (Hercules, CA, USA). For quantification of protein levels by the densitometric analysis, the experiment was carried out in triplicate and the data were collected from the resultant three Western blots.

[1] = tested on: MB231 cells and TXBR100 cells; assay: Lipid radical (ferroptosis) assay with LipiRadical Green; conditions: niclosamide 5 μM; MB231 30 min, TXBR100 2 h
Method: (§2) Lipid radical (ferroptosis) assay and iron assay were performed as follows. Cells were cultured on a 25 mm glass coverslip until they reached 60–70% confluency (~48 h). At the time of the experiment, cells were washed with NaCl buffer, pH 7.5 and then incubated with 1 µM of LipiRadical Green (a lipid radical detection reagent, FDV-0042, Funakoshi, Tokyo, Japan) or Ferro-orange (an iron detection probe, F374, Dojindo, Rockville, MD, USA) in NaCl buffer, pH 7.5 for 20 min and then washed with NaCl buffer, pH 7.5. To analyze the effects of modifiers of iron levels and lipid peroxidation, the cells were co-treated with the modifiers and the respective fluorescent probe for 20 min and then washed. The glass coverslip containing the cells was then probed under an inverted microscope. The fluorescence imaging was captured using a Nikon T1-E microscope with A1 confocal super-resolution module (Nikon, Dallas, TX, USA), with a 60× objective, at 488 nm. The images represent a maximum projection intensity derived from a Z-stack. The fluorescence quantification was performed by measuring the corrected total cell fluorescence (CTCF) using Image J (version: 2.14.0/1.54f) and the following formula; CTCF = (integrated density) − (area of cell of interest) × (mean fluorescence of background).

[2] = tested on: MB231 cells and TXBR100 cells; assay: Cellular glutathione levels (GSH-Glo assay); conditions: niclosamide 2 μM, 24 h; MB231 and TXBR100
Method: (§3) Control and niclosamide-treated cells were used for measurement of cellular glutathione levels as instructed in the manufacturer’s protocol (GSH-Glo assay, Promega, Madison, WI, USA). The levels of malondialdehyde were measured using lipid peroxidation kit [Lipid Peroxidation (MDA) Assay Kit (MAK085), Millipore-sigma, St. Louis, MO, USA].

GPX4, FTH1, p-S6K = assay: Western blot of GPX4, ferritin heavy chain and p-S6K in TNBC cells; conditions: niclosamide 2 μM, 24 h
Method: as §1

MB231 and TXBR100 cells [3] = assay: Cellular iron assay (Ferro-orange); conditions: niclosamide 5 μM, 30 min
Method: as §2

MB231 and TXBR100 cells [4] = assay: Reactive oxygen species assay (DCFH-DA); conditions: niclosamide 2.5 and/or 5 μM, 24 h
Method: The probe of DCFH-DA was used to measure ROS. Briefly, cells were grown in a 96-well plate and then incubated with DCFH-DA (10 µM) at 37 °C for 30 min in dark. At the end of the incubation, cells were treated with different concentrations of niclosamide. Fluorescence intensity was monitored with a Microplate Reader (Glomax multi-detection system, Promega, Madison, WI, USA) at the excitation and emission wavelengths of 485 and 528 nm, respectively. Cellular fluorescence levels were expressed as % of control group (i.e., no treatment with niclosamide).

MB231 and TXBR100 cells [5] = assay: Lipid peroxidation (malondialdehyde) assay; conditions: niclosamide 2.5 and/or 5 μM, 24 h
Method: as §3

[6] = tested on: TNBC cells (MB231 and TXBR100); assay: Colony formation (clonogenic) assay; conditions: niclosamide 0.5 μM, 10 days
Text: We performed the colony formation (clonogenic) assay with different doses of niclosamide on two different TNBC cell lines. Initial seeding was done with 500 cells/well and culture was continued for 10 days with culture medium replaced with fresh medium with freshly prepared niclosamide every other day. At the end of the 10-day time period, the medium was removed and the colonies were fixed with ice-cold methanol/acetone and then stained with Giemsa stain.

## O=C(Nc1ccc([N+](=O)[O-])cc1Cl)c1cc(Cl)ccc1O [niclosamide]
Nrf2; MB231
  Nrf2 protein level: decreased
  Nrf2 mRNA level: decreased
Nrf2; TXBR100
  Nrf2 protein level: significantly decreased
  Nrf2 mRNA level: did not alter
[1]
  ferroptosis (lipid radical fluorescence): induced ferroptosis
[2]
  decrease in glutathione levels: 60–70%
GPX4, FTH1, p-S6K; MB231 and TXBR100
  glutathione peroxidase 4 protein levels: decreased
GPX4, FTH1, p-S6K; MB231 and TXBR100 (more pronounced in TXBR100)
  ferritin levels: lower
GPX4, FTH1, p-S6K; both TNBC cell lines
  p70S6K and phospho-p70S6K levels (mTOR signaling): profound decrease
MB231 and TXBR100 cells [3]
  cellular iron levels: increased
MB231 and TXBR100 cells [4]
  ROS levels: increase
MB231 and TXBR100 cells [5]
  malondialdehyde levels (lipid peroxidation): increase
[6]
  decrease in colony formation: > 50%

From publication PMC10967572, “Induction of Oxidative Stress and Ferroptosis in Triple-Negative Breast Cancer Cells by Niclosamide via Blockade of the Function and Expression of SLC38A5 and SLC7A11” (Antioxidants, 2024)
